Measurements published in the supplement of paper PMC10307832.

Tests used:
Test in all cases: relative viability (nuclei count vs DMSO), 5 days (fraction); higher = more cells survive
[1] = compound: Nc1ncn([C@H]2C[C@H](O)[C@@H](CO)O2)c(=O)n1 [Decitabine] + Cc1nc(Nc2ncc(C(=O)Nc3c(C)cccc3Cl)s2)cc(N2CCN(CCO)CC2)n1 [Dasatinib] (partner 0.075 µM)
Outline: (§1)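 Cells from lung cancer lines were seeded into 1536-well plates and, one day later, dosed by pin tool. Treatments were either a single drug or a fixed dose of an anchor drug with five library-drug doses (not always all listed) in √10 steps. After 5 days, nuclei were stained in a one-step fixation (final 0.05% Triton X-100, 1% formaldehyde, 1 ug/ml Hoechst) and counted on 4× images, and relative viability is the treated-to-vehicle nuclei ratio, as the median of duplicate plates.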

[2] = compound: Nc1ncn([C@H]2C[C@H](O)[C@@H](CO)O2)c(=O)n1 [Decitabine] + NC(=O)Nc1cc(-c2cccc(F)c2)sc1C(=O)N[C@H]1CCCNC1 [AZD7762] (partner 0.2 µM)
Outline: as §1

[3] = compound: Nc1ncn([C@H]2C[C@H](O)[C@@H](CO)O2)c(=O)n1 [Decitabine] + O=C(CCCCCCC(=O)Nc1ccccc1)NO [Vorinostat] (partner 1 µM)
Outline: as §1

[4] = compound: O=C(C[C@H]1NCCC[C@@H]1O)Cn1cnc2cc(Br)c(Cl)cc2c1=O (racemic) [Halofuginone] + CC(=O)c1c(C)c2cnc(Nc3ccc(N4CCNCC4)cn3)nc2n(C2CCCC2)c1=O [Palbociclib] (partner 0.5 µM)
Outline: as §1

| Cell Line | relative viability ([1]; first compound 0.04 µM) | relative viability ([1]; first compound 0.1265 µM) | relative viability ([1]; first compound 0.4 µM) | relative viability ([1]; first compound 1.265 µM) | relative viability ([1]; first compound 4 µM) | relative viability ([2]; first compound 0.04 µM) | relative viability ([2]; first compound 0.1265 µM) | relative viability ([2]; first compound 0.4 µM) | relative viability ([2]; first compound 1.265 µM) | relative viability ([2]; first compound 4 µM) | relative viability ([3]; first compound 0.04 µM) | relative viability ([3]; first compound 0.1265 µM) | relative viability ([3]; first compound 0.4 µM) | relative viability ([3]; first compound 1.265 µM) | relative viability ([3]; first compound 4 µM) | relative viability ([4]; first compound 0.001 µM) | relative viability ([4]; first compound 0.003162 µM) | relative viability ([4]; first compound 0.01 µM) | relative viability ([4]; first compound 0.03162 µM) | relative viability ([4]; first compound 0.1 µM) |
| --- | --- | --- | --- | --- | --- | --- | --- | --- | --- | --- | --- | --- | --- | --- | --- | --- | --- | --- | --- | --- |
| HCC-15 | 0.625 | 0.581 | 0.408 | 0.361 | 0.333 | 1.12 | 0.777 | 0.752 | 0.632 | 0.747 | 0.776 | 0.678 | 0.543 | 0.418 | 0.35 | 0.802 | 0.823 | 0.731 | 0.713 | 0.65 |
| HCC-44 | – | – | – | – | – | 1.08 | 0.974 | 0.932 | 1.06 | 1.06 | 1.06 | 0.982 | 0.839 | 0.904 | 0.785 | 0.976 | 0.964 | 0.962 | 0.932 | 0.966 |
| HCC-78 | 0.269 | 0.334 | 0.361 | 0.285 | 0.208 | 0.549 | 0.605 | 0.565 | 0.474 | 0.466 | 0.54 | 0.476 | 0.477 | 0.448 | 0.346 | 0.516 | 0.519 | 0.497 | 0.488 | 0.551 |
| HCC-366 | 0.608 | 0.632 | 0.567 | 0.195 | 0.128 | 0.208 | 0.276 | 0.114 | 0.0535 | 0.0424 | 0.235 | 0.313 | 0.138 | 0.0554 | 0.0657 | 0.363 | 0.472 | 0.351 | 0.358 | 0.14 |
